Reference: patent US20230407243A1, “GENETIC PLATFORM TO INVESTIGATE THE FUNCTIONS OF BACTERIAL DRUG EFFLUX PUMPS” (priority 2022, published 2023)
Where two headings read alike, the source gives them in different places.

What was measured:
Format in all cases: cell-based, Escherichia coli
EKO-35 = system: EKO-35
In short: (§1)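 Read-out was OD600, the MIC being the lowest concentration without growth in a CLSI checkerboard run in MHB II. Each drug's MIC in combination was divided by its MIC alone and the two ratios summed as FICI. Cut-offs: <0.5 synergy, >0.5–1.0 additive, >1.0–2.0 indifferent, >2.0 antagonism.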

wild-type E. coli K-12 = system: wild-type E. coli K-12
In short: as §1

ΔtolC-Pore = system: ΔtolC-Pore
In short: as §1

[1] = system: EKO-35 strains producing different efflux pumps (EKO-35 araC::X); experiment: Checkerboard synergy (FICI) of PAβN or NMP with antibiotics
In short: as §1

[2] = system: EKO-35 porinated strain expressing acrB; experiment: Checkerboard synergy (FICI), porinated strain
In short: as §1

[3] = system: EKO-35-Pore acrBD408A (functionally inactive AcrB variant); experiment: Checkerboard synergy (FICI), porinated strain
In short: as §1

EKO-35-Pore = experiment: Checkerboard synergy (FICI), porinated strain
In short: as §1

wild-type K-12-Pore = experiment: Checkerboard synergy (FICI), porinated strain
In short: as §1

[4] = strain ΔtolC Pore, NMP + antibiotic
[5] = EKO-35 mdtEF, PAβN + antibiotic
[6] = strain EKO-35 acrB, NMP + antibiotic
[7] = strain EKO-35 acrEF, NMP + antibiotic
[8] = strain EKO-35 mdtEF, NMP + antibiotic
[9] = EKO-35 acrB Pore, NMP + antibiotic
[10] = EKO-35 acrB Pore, PAβN + antibiotic
[11] = strain EKO-35 acrB Pore, NMP + antibiotic
[12] = EKO-35 acrBD408A Pore, NMP + antibiotic
[13] = EKO-35 acrBD408A Pore, PAβN + antibiotic
[14] = strain EKO-35 acrBD408A Pore, NMP + antibiotic
[15] = porinated efflux-deficient strains
[16] = strain EKO-35 Pore, NMP + antibiotic
[17] = strain K-12 Pore, NMP + antibiotic

CC[C@H]1OC(=O)[C@H](C)[C@@H](O[C@H]2C[C@@](C)(OC)[C@@H](O)[C@H](C)O2)[C@H](C)[C@@H](O[C@@H]2O[C@H](C)C[C@H](N(C)C)[C@H]2O)[C@](C)(O)C[C@@H](C)C(=O)[C@H](C)[C@@H](O)[C@]1(C)O [erythromycin]
— (indifferent (FICI >1.0)): Effect [1, 7] | Effect (wild-type K-12-Pore; [17])
Synergistic (Synergy (FICI ≤0.5)): Effect (EKO-35; strain EKO-35, NMP + antibiotic) | Effect (ΔtolC-Pore; [4]) | Effect [1, 8] | Effect ([1]; strain EKO-35 mexCD, NMP + antibiotic)
4 µg/mL: MICb Alone (ΔtolC-Pore; strain ΔtolC Pore, antibiotic alone) | MICb Alone (wild-type K-12-Pore; K-12 Pore, antibiotic alone (PAβN checkerboard))
Additive (additive (FICI >0.5-1.0)): Effect (wild-type E. coli K-12; strain K-12, NMP + antibiotic) | Effect [1, 6] | Effect [2, 11] | Effect [3, 14] | Effect (EKO-35-Pore; [16])
0.250: FICI ([1]; EKO-35 mdtEF, NMP + antibiotic) | FICI [1, 8]
0.094: FICI (wild-type E. coli K-12; K-12, PAβN + antibiotic) | FICI [1, 5]
1 µg/mL: MICb Alone (ΔtolC-Pore; ΔtolC Pore, antibiotic alone (PAβN checkerboard)) | MICb Combined ([1]; EKO-35 acrB, antibiotic in combination with PAβN)
16 µg/mL: MICb Combined (wild-type E. coli K-12; strain K-12, antibiotic in combination with NMP) | MICb Alone ([1]; EKO-35 mdtEF, antibiotic alone (PAβN checkerboard)) | MICb Alone ([1]; strain EKO-35 mexCD, antibiotic alone) | MICb Alone (wild-type K-12-Pore; strain K-12 Pore, antibiotic alone)
64 µg/mL: MICb Alone (wild-type E. coli K-12; K-12, antibiotic alone (PAβN checkerboard)) | MICb Alone ([1]; EKO-35 acrB, antibiotic alone (PAβN checkerboard)) | MICb Combined ([1]; strain EKO-35 acrB, antibiotic in combination with NMP) | MICb Alone ([1]; strain EKO-35 mdtEF, antibiotic alone)
0.188: FICI (ΔtolC-Pore; ΔtolC Pore, PAβN + antibiotic)
0.770: FICI (EKO-35-Pore; EKO-35 Pore, NMP + antibiotic) | FICI (EKO-35-Pore; [16])
2.000: FICI ([1]; EKO-35 acrEF, NMP + antibiotic) | FICI [1, 7]
0.13 µg/mL: MICb Alone ([3]; EKO-35 acrBD408A Pore, antibiotic alone (PAβN checkerboard)) | MICb Alone ([3]; strain EKO-35 acrBD408A Pore, antibiotic alone) | MICb Alone (EKO-35-Pore; EKO-35 Pore, antibiotic alone (PAβN checkerboard)) | MICb Combined (EKO-35-Pore; strain EKO-35 Pore, antibiotic in combination with NMP)
0.735: FICI [3, 12] | FICI [3, 13] | FICI [3, 14]
0.5 µg/mL: MICb Combined (ΔtolC-Pore; strain ΔtolC Pore, antibiotic in combination with NMP) | MICb Combined ([1]; EKO-35 acrEF, antibiotic in combination with PAβN) | MICb Combined ([1]; EKO-35 mdtEF, antibiotic in combination with PAβN) | MICb Combined ([1]; EKO-35 mexCD, antibiotic in combination with PAβN) | MICb Combined ([2]; EKO-35 acrB Pore, antibiotic in combination with PAβN) | MICb Combined ([2]; strain EKO-35 acrB Pore, antibiotic in combination with NMP)
0.531: FICI ([1]; EKO-35 acrB, NMP + antibiotic) | FICI [1, 6]
0.563: FICI [2, 9] | FICI [2, 11]
8 µg/mL: MICb Alone ([1]; EKO-35 acrEF, antibiotic alone (PAβN checkerboard)) | MICb Alone ([1]; EKO-35 mexCD, antibiotic alone (PAβN checkerboard)) | MICb Alone ([1]; strain EKO-35 acrEF, antibiotic alone) | MICb Combined ([1]; strain EKO-35 acrEF, antibiotic in combination with NMP) | MICb Combined ([1]; strain EKO-35 mdtEF, antibiotic in combination with NMP) | MICb Alone ([2]; strain EKO-35 acrB Pore, antibiotic alone) | MICb Combined (wild-type K-12-Pore; strain K-12 Pore, antibiotic in combination with NMP)
low-level synergy: interaction of NMP in combination with the labelled antibiotic (FICI) (EKO-35; EKO-35 and EKO-35 acrBD408A)
0.625: FICI (wild-type E. coli K-12; K-12, NMP + antibiotic) | FICI (wild-type E. coli K-12; strain K-12, NMP + antibiotic) | FICI (ΔtolC-Pore; [4]) | FICI (ΔtolC-Pore; ΔtolC Pore, NMP + antibiotic)
0.078: FICI ([1]; EKO-35 acrB, PAβN + antibiotic) | FICI [2, 10]
0.25 µg/mL: MICb Combined (EKO-35; strain EKO-35, antibiotic in combination with NMP) | MICb Alone (EKO-35-Pore; strain EKO-35 Pore, antibiotic alone) | MICb Combined (wild-type K-12-Pore; K-12 Pore, antibiotic in combination with PAβN)
0.063 µg/mL: MICb Combined (ΔtolC-Pore; ΔtolC Pore, antibiotic in combination with PAβN) | MICb Combined ([3]; EKO-35 acrBD408A Pore, antibiotic in combination with PAβN) | MICb Combined ([3]; strain EKO-35 acrBD408A Pore, antibiotic in combination with NMP) | MICb Combined (EKO-35-Pore; EKO-35 Pore, antibiotic in combination with PAβN)
0.610: FICI (EKO-35-Pore; EKO-35 Pore, PAβN + antibiotic)
0.06 µg/mL: MICb Combined (EKO-35; EKO-35, antibiotic in combination with PAβN)
32 µg/mL: MICb Alone ([2]; EKO-35 acrB Pore, antibiotic alone (PAβN checkerboard))
1.000: FICI (wild-type K-12-Pore; K-12 Pore, NMP + antibiotic) | FICI (wild-type K-12-Pore; [17])
no longer synergistic: interaction of NMP in combination with the labelled antibiotic (FICI) (EKO-35-Pore; [15]) | interaction of PAβN in combination with the labelled antibiotic (FICI) (EKO-35-Pore; [15])
Additive: Effect (wild-type E. coli K-12; K-12, NMP + antibiotic) | Effect ([1]; EKO-35 acrB, NMP + antibiotic) | Effect [2, 9] | Effect [3, 12] | Effect [3, 13] | Effect (EKO-35-Pore; EKO-35 Pore, NMP + antibiotic) | Effect (EKO-35-Pore; EKO-35 Pore, PAβN + antibiotic)
synergized: interaction of PAβN in combination with the labelled antibiotic (FICI) (EKO-35; efflux-deficient strains EKO-35, EKO-35 acrBD408A, ΔtolC)
0.093: FICI (EKO-35; EKO-35, PAβN + antibiotic)
2 µg/mL: MICb Alone (EKO-35; EKO-35, antibiotic alone (PAβN checkerboard)) | MICb Alone (EKO-35; strain EKO-35, antibiotic alone) | MICb Combined (wild-type E. coli K-12; K-12, antibiotic in combination with PAβN) | MICb Combined ([1]; strain EKO-35 mexCD, antibiotic in combination with NMP)
Synergistic: Effect (EKO-35; EKO-35, NMP + antibiotic) | Effect (EKO-35; EKO-35, PAβN + antibiotic) | Effect (wild-type E. coli K-12; K-12, PAβN + antibiotic) | Effect (ΔtolC-Pore; ΔtolC Pore, NMP + antibiotic) | Effect (ΔtolC-Pore; ΔtolC Pore, PAβN + antibiotic) | Effect ([1]; EKO-35 acrB, PAβN + antibiotic) | Effect ([1]; EKO-35 acrEF, PAβN + antibiotic) | Effect ([1]; EKO-35 mdtEF, NMP + antibiotic) | Effect [1, 5] | Effect ([1]; EKO-35 mexCD, NMP + antibiotic) | Effect ([1]; EKO-35 mexCD, PAβN + antibiotic) | Effect [2, 10] | Effect (wild-type K-12-Pore; K-12 Pore, PAβN + antibiotic)
